Source: patent US20110217713A1 (On-Q-ity, priority 2010, published 2011)

Tested on: non-small cell lung cancer patient specimens (adenocarcinomas and squamous cell carcinoma)
Assay: International Adjuvant Lung Trial (IALT): cisplatin-based therapy vs observation, DFS/OS against IHC DNA repair biomarker Q-scores (Cox PH models)
Assay type: in vivo, human
Description: An immunohistochemical evaluation of DNA Repair Proteins was conducted on a large international patient specimen collection from the IALT trial (International Adjuvant Lung Trial). This clinical trial originally comprised approximately 1867 non-small cell lung cancer patient specimens (adenocarcinomas and squamous cell carcinoma) and was designed to test clinical parameters for patients receiving either cisplatin-based therapy or those considered observation. One problem with testing of biomarkers in general from clinical trials is that the patient population treatments are generally a mixture of several different treatments and combinations of such and so results may be confounded by interactions of various treatments. However, the IALT trial represents pristine treatment arms of cisplatin and observation and thus is relatively free of confounding affects due to treatment variation.
International Adjuvant Lung Cancer Trial (IALT) NSCLC FFPE patient specimens constructed on TMAs (13 total) were stained by IHC for DNA repair biomarkers: ATM, MSH2, ERCC1, p53, pMK2, PARP1, BRCA1, XPF. An average of 603 patients were analyzed for each biomarker. Tumor biomarker nuclear or cytoplasmic levels were determined using digital image user defined macros. Scores were generated based on weighted intensity and quantity of stained cells. In reference to accompanying diagrams in the Powerpoint files, please note that a wide dynamic range achieved during assay development and optimization in commercially available TMAs is translationally achieved when patients comprising this study population are stained, annotated for tumor region and scored by user-defined macros.
Previous studies have utilized standard pathologist-based scoring, thus we chose to optimize the IHC-based assessment of biomarker levels using digital pathology and weighted scoring. This endeavor is undertaken so that for a given population a continuum of scores (herein referred to as Q-scores) with a broad dynamic range may be generated by user defined macros. Here, scoring of individual tumor cells comprising each patient specimen is generated and then patients assembled into a population continuum of scores against which finer cut-points may tested and established rather than crude binning methods as employed in previous studies.
Q-score=10*(% of 10+cells)+9*(% of 9+cells)+8*(% of 8+cells)+7*(% of 7+cells) . . . 1*(% of 1+cells)
Cox PH models adjusted for relevant clinical and stratification variables were used in the univariate analyses of Disease-Free Survival (DFS) and Overall Survival (OS). Initial analyses were conducted using biomarker Q scores as continuous variables against clinical endpoint metrics.

[1] = ERCC1 model, ADENOCARCINOMA, Without variables
[2] = ERCC1 model, SQUAMOUS CELLS, With adjustment variables
[3] = ERCC1 model, SQUAMOUS CELLS, With selected variables
[4] = ERCC1 model, SQUAMOUS CELLS, Without variables
[5] = Mean Q score PMK2 nuclear (PMK2MN), Adenocarcinoma, with adjustment variables
[6] = Mean Q score PMK2 nuclear (PMK2MN), Adenocarcinoma, with selected variables
[7] = Mean Q score PMK2 nuclear (PMK2MN), Adenocarcinoma, without variables
[8] = Mean Q score PMK2 nuclear (PMK2MN), Squamous Cells, with adjustment variables
[9] = Mean Q score PMK2 nuclear (PMK2MN), Squamous Cells, with selected variables
[10] = Mean Q score PMK2 nuclear (PMK2MN), Squamous Cells, without variables
[11] = Mean Q score of PMK2 cytoplasm divided by nuclear (PMK2MCNp), Adenocarcinoma, with adjustment variables
[12] = Mean Q score of PMK2 cytoplasm divided by nuclear (PMK2MCNp), Adenocarcinoma, with selected variables
[13] = Mean Q score of PMK2 cytoplasm divided by nuclear (PMK2MCNp), Adenocarcinoma, without variables
[14] = Mean Q score sum of PMK2 cytoplasm & nuclear (PMK2MCNs), Adenocarcinoma, with adjustment variables
[15] = Mean Q score sum of PMK2 cytoplasm & nuclear (PMK2MCNs), Adenocarcinoma, with selected variables
[16] = Mean Q score sum of PMK2 cytoplasm & nuclear (PMK2MCNs), Adenocarcinoma, without variables
[17] = Mean Q score sum of PMK2 cytoplasm & nuclear (PMK2MCNs), Squamous Cells, with adjustment variables
[18] = Mean Q score sum of PMK2 cytoplasm & nuclear (PMK2MCNs), Squamous Cells, with selected variables
[19] = Mean Q score sum of PMK2 cytoplasm & nuclear (PMK2MCNs), Squamous Cells, without variables
[20] = Overall Survival, MEAN Q SCORE PMK2 CYTOPLASM, Adenocarcinoma, With adjustment variables
[21] = Overall Survival, MEAN Q SCORE PMK2 CYTOPLASM, Adenocarcinoma, With selected variables
[22] = Overall Survival, MEAN Q SCORE PMK2 CYTOPLASM, Adenocarcinoma, Without variables
[23] = Overall Survival, MEAN Q SCORE PMK2 CYTOPLASM, Squamous Cells, With selected variables
[24] = Overall Survival, MEAN Q SCORE PMK2 CYTOPLASM, Squamous Cells, Without variables
[25] = PARP1 model, SQUAMOUS CELLS, With adjustment variables
[26] = PARP1 model, SQUAMOUS CELLS, With selected variables
[27] = PARP1 model, SQUAMOUS CELLS, Without variables
[28] = XPF model, ADENOCARCINOMA, With adjustment variables
[29] = XPF model, ADENOCARCINOMA, With selected variables
[30] = XPF model, ADENOCARCINOMA, Without variables
[31] = XPF model, SQUAMOUS CELLS, With adjustment variables
[32] = XPF model, SQUAMOUS CELLS, With selected variables
[33] = XPF model, SQUAMOUS CELLS, Without variables

N.N.[Cl][Pt][Cl] [cisplatin]
HazardRatio, Treatment (ERCC1 model, ADENOCARCINOMA, With selected variables): 0.765 | HazardRatio, ERCC1_Treatment [1]: 1.024 | HazardRatio, Treatment [1]: 1.040 | HazardRatio, ERCC1_Treatment [2]: 1.070 | HazardRatio, Treatment [2]: 0.731 | HazardRatio, ERCC1_Treatment [3]: 1.052 | HazardRatio, Treatment [3]: 0.781 | HazardRatio, ERCC1_Treatment [4]: 1.054 | HazardRatio, Treatment [4]: 0.773 | HazardRatio, PMK2MN_Treatment interaction (Disease Free Survival) [5]: 1.077 | HazardRatio, Treatment (Disease Free Survival) [5]: 0.811 | HazardRatio, PMK2MN_Treatment interaction (Disease Free Survival) [6]: 1.084 | HazardRatio, Treatment (Disease Free Survival) [6]: 0.802 | HazardRatio, PMK2MN_Treatment interaction (Disease Free Survival) [7]: 0.956 | HazardRatio, Treatment (Disease Free Survival) [7]: 1.146 | HazardRatio, PMK2MN_Treatment interaction (Disease Free Survival) [8]: 1.145 | HazardRatio, Treatment (Disease Free Survival) [8]: 0.737 | HazardRatio, PMK2MN_Treatment interaction (Disease Free Survival) [9]: 1.145 | HazardRatio, Treatment (Disease Free Survival) [9]: 0.750 | HazardRatio, PMK2MN_Treatment interaction (Disease Free Survival) [10]: 1.111 | HazardRatio, Treatment (Disease Free Survival) [10]: 0.780 | HazardRatio, PMK2MCNp_Treatment interaction (Disease Free Survival) [11]: 0.000 | HazardRatio, Treatment (Disease Free Survival) [11]: 0.954 | HazardRatio, PMK2MCNp_Treatment interaction (Disease Free Survival) [12]: 0.000 | HazardRatio, Treatment (Disease Free Survival) [12]: 0.992 | HazardRatio, PMK2MCNp_Treatment interaction (Disease Free Survival) [13]: 0.000 | HazardRatio, Treatment (Disease Free Survival) [13]: 1.177 | HazardRatio, Treatment (Disease Free Survival) (Mean Q score of PMK2 cytoplasm divided by nuclear (PMK2MCNp), Squamous Cells, with adjustment variables): 0.612 | HazardRatio, Treatment (Disease Free Survival) (Mean Q score of PMK2 cytoplasm divided by nuclear (PMK2MCNp), Squamous Cells, with selected variables): 0.645 | HazardRatio, Treatment (Disease Free Survival) (Mean Q score of PMK2 cytoplasm divided by nuclear (PMK2MCNp), Squamous Cells, without variables): 0.726 | HazardRatio, PMK2MCNs_Treatment interaction (Disease Free Survival) [14]: 1.041 | HazardRatio, Treatment (Disease Free Survival) [14]: 0.832 | HazardRatio, PMK2MCNs_Treatment interaction (Disease Free Survival) [15]: 1.044 | HazardRatio, Treatment (Disease Free Survival) [15]: 0.828 | HazardRatio, PMK2MCNs_Treatment interaction (Disease Free Survival) [16]: 0.939 | HazardRatio, Treatment (Disease Free Survival) [16]: 1.203 | HazardRatio, PMK2MCNs_Treatment interaction (Disease Free Survival) [17]: 1.091 | HazardRatio, Treatment (Disease Free Survival) [17]: 0.751 | HazardRatio, PMK2MCNs_Treatment interaction (Disease Free Survival) [18]: 1.090 | HazardRatio, Treatment (Disease Free Survival) [18]: 0.766 | HazardRatio, PMK2MCNs_Treatment interaction (Disease Free Survival) [19]: 1.066 | HazardRatio, Treatment (Disease Free Survival) [19]: 0.798 | HazardRatio, PMK2MC_Treatrnent [20]: 1.001 | HazardRatio, Treatment [20]: 0.883 | HazardRatio, PMK2MC_Treatment [21]: 0.972 | HazardRatio, Treatment [21]: 0.891 | HazardRatio, PMK2MC_Treatment [22]: 0.639 | HazardRatio, Treatment [22]: 1.264 | HazardRatio, PMK2MC_Treatment [23]: 1.240 | HazardRatio, Treatment [23]: 0.803 | HazardRatio, PMK2MC_Treatment [24]: 1.147 | HazardRatio, Treatment [24]: 0.835 | HazardRatio, PARP1_Treatment [25]: 1.082 | HazardRatio, Treatment [25]: 0.621 | HazardRatio, PARP1_Treatment [26]: 1.062 | HazardRatio, Treatment [26]: 0.687 | HazardRatio, PARP1_Treatment [27]: 1.107 | HazardRatio, Treatment [27]: 0.572 | predictive HR, p53 (SCC, univariate Cox PH, biomarker Q score, DFS primary endpoint, OS secondary, p=0.005, 95% CI 1.035-1.212): 1.120 | predictive HR, ATM (SCC, univariate Cox PH, biomarker Q score, DFS primary endpoint, OS secondary, p=0.010, 95% CI 1.046-1.405): 1.212 | predictive HR, MSH2 (SCC, univariate Cox PH, biomarker Q score, DFS primary endpoint, OS secondary, p=0.012, 95% CI 1.044-1.42): 1.218 | HazardRatio, Treatment [28]: 0.628 | HazardRatio, XPF_Treatment [28]: 1.179 | HazardRatio, Treatment [29]: 0.689 | HazardRatio, XPF_Treatment [29]: 1.166 | HazardRatio, Treatment [30]: 0.900 | HazardRatio, XPF_Treatment [30]: 1.080 | HazardRatio, Treatment [31]: 0.813 | HazardRatio, XPF_Treatment [31]: 1.030 | HazardRatio, Treatment [32]: 0.820 | HazardRatio, XPF_Treatment [32]: 1.035 | HazardRatio, Treatment [33]: 0.759 | HazardRatio, XPF_Treatment [33]: 1.063
